Assay results taken from patent US10160743B2, “Sulphamoylthiophenamide derivatives and the use thereof as medicaments for the treatment of hepatitis B” (Janssen Sciences Ireland UC, priority 2013, dated 2018).

Legend:
HBV [1] = assay: Anti-HBV activity, HepG2.117 cell line (Tet-off), intracellular HBV DNA by realtime PCR; assay type: cell-based, Hepatitis B virus; conditions: HepG2.117 cells, 3 days of treatment
HBV [2] = assay: Anti-HBV activity, HepG2.2.15 cell line, HBV DNA from secreted virions by realtime PCR; assay type: cell-based, Hepatitis B virus; conditions: HepG2.2.15 cells, 6 days of treatment
[3] = Cytotoxicity in HepG2 cells, Resazurin assay; assay type: cell-based; conditions: human, incubated for 4 days, Resazurin viability
[4] = Hepatitis B virus, HepG2.117, 72 h
[5] = Hepatitis B virus, HepG2.2.15, 144 h

Row | Compound | EC50 (HBV [1]) | EC50 (HBV [2]) | CC50 at 4 days [3] | EC50 (HBV [1]; [4]) | EC50 (HBV [2]; [5])
1 | Cc1cc(NC(=O)c2cc(S(=O)(=O)NC3(C)CCOC3)sc2C)ccc1F (racemic) [Compound 16, N-(4-fluoro-3-methyl-phenyl)-2-methyl-5-[(3-methyltetrahydrofuran-3-yl)sulfamoyl]thiophene-3-carboxamide] | 48 nM | 54 nM | > 25000 nM | – | –
2 | Cc1sc(S(=O)(=O)NC2(C(F)(F)F)CCOC2)cc1C(=O)Nc1cccc(C(F)(F)F)c1 (racemic) [Compound 41, 2-methyl-N-[3-(trifluoromethyl)phenyl]-5-[[3-(trifluoromethyl)tetrahydrofuran-3-yl]sulfamoyl]thiophene-3-carboxamide] | – | – | > 25000 nM | > 1000 nM | 550 nM
3 | Cc1sc(S(=O)(=O)NC2(C(F)(F)F)CCOC2)cc1C(=O)Nc1ccc(F)c(C#N)c1 (racemic) [Compound 54, N-(3-cyano-4-fluoro-phenyl)-2-methyl-5-[[3-(trifluoromethyl)tetrahydrofuran-3-yl]sulfamoyl]thiophene-3-carboxamide] | – | – | > 25000 nM | 100 nM | 180 nM
4 | Cc1cc(NC(=O)c2csc(S(=O)(=O)N[C@H]3CCOC3)c2)ccc1F [Compound 1, N-(4-fluoro-3-methyl-phenyl)-5-[[(3S)-tetrahydrofuran-3-yl]sulfamoyl]thiophene-3-carboxamide] | – | – | > 25000 nM | 320 nM | 170 nM
5 | Cc1cc(NC(=O)c2cc(S(=O)(=O)N[C@H]3CCOC3)sc2Br)ccc1F [Compound 2, 2-bromo-N-(4-fluoro-3-methyl-phenyl)-5-[[(3S)-tetrahydrofuran-3-yl]-sulfamoyl]thiophene-3-carboxamide] | – | – | > 25000 nM | 1900 nM | 810 nM
6 | Cc1cc(NC(=O)c2cc(S(=O)(=O)N[C@H](C)CO)sc2Cl)ccc1F [Compound 3, 2-chloro-N-(4-fluoro-3-methyl-phenyl)-5-[[(1R)-2-hydroxy-1-methyl-ethyl]sulfamoyl]thiophene-3-carboxamide] | – | – | > 25000 nM | 340 nM | 210 nM
7 | Cc1cc(NC(=O)c2cc(S(=O)(=O)N[C@H]3CCOC3)sc2Cl)ccc1F [Compound 4, 2-chloro-N-(4-fluoro-3-methyl-phenyl)-5-[[(3S)-tetrahydrofuran-3-yl]-sulfamoyl]thiophene-3-carboxamide] | – | – | > 25000 nM | 560 nM | 570 nM
8 | Cc1cc(NC(=O)c2cc(S(=O)(=O)N[C@H]3CCOC3)sc2C(F)(F)F)ccc1F [Compound 5, N-(4-fluoro-3-methyl-phenyl)-5-[[(3S)-tetrahydrofuran-3-yl]sulfamoyl]-2-(trifluoromethyl)thiophene-3-carboxamide] | – | – | > 25000 nM | 1180 nM | 1670 nM
9 | Cc1cc(NC(=O)c2cc(S(=O)(=O)N[C@H]3CCOC3)sc2C2CC2)ccc1F [Compound 6, 2-cyclopropyl-N-(4-fluoro-3-methyl-phenyl)-5-[[(3S)-tetrahydrofuran-3-yl]sulfamoyl]thiophene-3-carboxamide] | – | – | > 25000 nM | 680 nM | 580 nM
10 | Cc1cc(NC(=O)c2cc(S(=O)(=O)N[C@H]3CCOC3)sc2C)ccc1F [Compound 7, N-(4-fluoro-3-methyl-phenyl)-2-methyl-5-[[(3S)-tetrahydrofuran-3-yl]-sulfamoyl]thiophene-3-carboxamide] | – | – | > 25000 nM | 160 nM | 170 nM
11 | Cc1cc(NC(=O)c2cc(S(=O)(=O)N[C@H]3CCOC3)cs2)ccc1F [Compound 8, N-(4-fluoro-3-methyl-phenyl)-4-[[(3S)-tetrahydrofuran-3-yl]sulfamoyl]thiophene-2-carboxamide] | – | – | > 25000 nM | 160 nM | 100 nM
12 | Cc1cc(NC(=O)c2cc(S(=O)(=O)N[C@H]3CCOC3)c(C)s2)ccc1F [Compound 9, N-(4-fluoro-3-methyl-phenyl)-5-methyl-4-[[(3S)-tetrahydrofuran-3-yl]-sulfamoyl]thiophene-2-carboxamide] | – | – | > 25000 nM | 1100 nM | 790 nM
13 | Cc1cc(NC(=O)c2cc(S(=O)(=O)NC3(C)COC3)c(C)s2)ccc1F [Compound 10, N-(4-fluoro-3-methyl-phenyl)-5-methyl-4-[(3-methyloxetan-3-yl)-sulfamoyl]thiophene-2-carboxamide] | – | – | > 25000 nM | 560 nM | 430 nM
14 | Cc1cc(NC(=O)c2scc(S(=O)(=O)N[C@H]3CCOC3)c2C)ccc1F [Compound 11, N-(4-fluoro-3-methyl-phenyl)-3-methyl-4-[[(3S)-tetrahydrofuran-3-yl]-sulfamoyl]thiophene-2-carboxamide] | – | – | > 25000 nM | 310 nM | 190 nM
15 | Cc1cc(NC(=O)c2scc(S(=O)(=O)NC3(C)COC3)c2C)ccc1F [Compound 12, N-(4-fluoro-3-methyl-phenyl)-3-methyl-4-[(3-methyloxetan-3-yl)-sulfamoyl]thiophene-2-carboxamide] | – | – | > 25000 nM | 190 nM | 160 nM
16 | Cc1cc(NC(=O)c2ccc(S(=O)(=O)N[C@H]3CCOC3)s2)ccc1F [Compound 13, N-(4-fluoro-3-methyl-phenyl)-5-[[(3S)-tetrahydrofuran-3-yl]-sulfamoyl]thiophene-2-carboxamide] | – | – | > 25000 nM | 940 nM | 1700 nM
17 | CCc1sc(S(=O)(=O)N[C@H]2CCOC2)cc1C(=O)Nc1ccc(F)c(C)c1 [Compound 14, 2-ethyl-N-(4-fluoro-3-methyl-phenyl)-5-[[(3S)-tetrahydrofuran-3-yl]-sulfamoyl]thiophene-3-carboxamide] | – | – | > 25000 nM | 130 nM | 630 nM
18 | Cc1cc(NC(=O)c2cc(S(=O)(=O)NC3(C)COC3)sc2C)ccc1F [Compound 15, N-(4-fluoro-3-methyl-phenyl)-2-methyl-5-[(3-methyloxetan-3-yl)-sulfamoyl]thiophene-3-carboxamide] | – | – | > 25000 nM | 160 nM | 27 nM
19 | Cc1sc(S(=O)(=O)NC(C)(C)C)cc1C(=O)Nc1ccc(F)c(F)c1 [Compound 17, 5-(tert-butylsulfamoyl)-N-(3,4-difluorophenyl)-2-methyl-thiophene-3-carboxamide] | – | – | 11700 nM | 130 nM | 120 nM
20 | CC[C@@H](C)NS(=O)(=O)c1cc(C(=O)Nc2ccc(F)c(F)c2)c(C)s1 [Compound 18, N-(3,4-difluorophenyl)-2-methyl-5-[[(1R)-1-methylpropyl]sulfamoyl]thiophene-3-carboxamide] | – | – | 14600 nM | 82 nM | 65 nM
21 | Cc1sc(S(=O)(=O)NC2(C)COC2)cc1C(=O)Nc1cc(F)c(F)c(Cl)c1 [Compound 19, N-(3-chloro-4,5-difluoro-phenyl)-2-methyl-5-[(3-methyloxetan-3-yl)-sulfamoyl]thiophene-3-carboxamide] | – | – | > 25000 nM | 100 nM | 63 nM
22 | Cc1sc(S(=O)(=O)NC(C)(C)C)cc1C(=O)Nc1cc(F)c(F)c(Cl)c1 [Compound 20, 5-(tert-Butylsulfamoyl)-N-(3-chloro-4,5-difluorophenyl)-2-methylthiophene-3-carboxamide] | – | – | 15900 nM | 110 nM | 170 nM
23 | Cc1sc(S(=O)(=O)NC(C)(C)C)cc1C(=O)Nc1cccc(C(F)(F)F)c1 [Compound 21, 5-(tert-butylsulfamoyl)-2-methyl-N-[3-(trifluoromethyl)phenyl]thiophene-3-carboxamide] | – | – | 10500 nM | > 1000 nM | 320 nM
24 | Cc1sc(S(=O)(=O)NC2(C)COC2)cc1C(=O)Nc1cccc(C(F)(F)F)c1 [Compound 22, 2-methyl-5-[(3-methyloxetan-3-yl)sulfamoyl]-N-[3-(trifluoromethyl)-phenyl]thiophene-3-carboxamide] | – | – | > 25000 nM | 230 nM | 250 nM
25 | Cc1cc(NC(=O)c2cc(S(=O)(=O)NC(C)(C)C)sc2C)cc(F)c1F [Compound 23, 5-(tert-Butylsulfamoyl)-N-(3,4-difluoro-5-methylphenyl)-2-methylthiophene-3-carboxamide] | – | – | 18100 nM | 32 nM | 110 nM
26 | Cc1sc(S(=O)(=O)NC(C)(C)C)cc1C(=O)Nc1ccc(F)c(C#N)c1 [Compound 24, 5-(tert-Butylsulfamoyl)-N-(3-cyano-4-fluorophenyl)-2-methylthiophene-3-carboxamide] | – | – | > 25000 nM | 150 nM | 120 nM
27 | Cc1cc(NC(=O)c2cc(S(=O)(=O)NC(C)(C)C)sc2C)ccc1F [Compound 25, 5-(tert-Butylsulfamoyl)-N-(4-fluoro-3-methylphenyl)-2-methylthiophene-3-carboxamide] | – | – | > 25000 nM | 58 nM | 53 nM
28 | Cc1sc(S(=O)(=O)NC(C)(C)C)cc1C(=O)Nc1ccc(F)c(Cl)c1 [Compound 26, 5-(tert-Butylsulfamoyl)-N-(3-chloro-4-fluorophenyl)-2-methylthiophene-3-carboxamide] | – | – | 11500 nM | 51 nM | 170 nM
29 | Cc1sc(S(=O)(=O)NC(C)(C)C)cc1C(=O)Nc1ccc(F)c(Br)c1 [Compound 27, N-(3-Bromo-4-fluorophenyl)-5-(tert-butylsulfamoyl)-2-methylthiophene-3-carboxamide] | – | – | 12200 nM | 90 nM | 130 nM
30 | Cc1sc(S(=O)(=O)NC(C)(C)C(F)(F)F)cc1C(=O)Nc1cc(F)c(F)c(Cl)c1 [Compound 40, N-(3-chloro-4,5-difluoro-phenyl)-2-methyl-5-[(2,2,2-trifluoro-1,1-dimethyl-ethyl)sulfamoyl]thiophene-3-carboxamide] | – | – | > 25000 nM | 500 nM | –
